Reference: patent US10117950B2, “Compounds and compositions for the treatment of ocular disorders” (Graybug Vision, Inc., priority 2015, dated 2018)
Like-named read-outs stand apart in the source and are kept apart here.

Legend:
[1] = In vitro stability of brinzolamide and dorzolamide NCEs (RP-HPLC); conditions: PBS pH 7, 10% DMSO; for in vitro stability / degradation kinetics: 37° C. and accelerated conditions, 14-19 days; for primary compound remaining: 37° C.
Protocol: The samples were incubated at 37° C. or 50° C. to simulate physiological and accelerated degradation conditions, respectively. At various time points, 100 μL of the solution was collected, diluted 10-fold with MeCN+0.1% formic acid, filtered through a 0.2 μm nylon syringe filter and analyzed by RP-HPLC.

[2] = biological target: T1, bovine erythrocyte carbonic anhydrase II (Bos taurus, UniProt P00921); assay: Carbonic anhydrase II inhibition, colorimetric 4-nitrophenyl acetate hydrolysis; format: biochemical; conditions: for IC50: n = 2
T1 construct: purified bovine erythrocyte carbonic anhydrase II; from tissue; host or cells: bovine erythrocytes
T1 sequence (P00921 whole entry): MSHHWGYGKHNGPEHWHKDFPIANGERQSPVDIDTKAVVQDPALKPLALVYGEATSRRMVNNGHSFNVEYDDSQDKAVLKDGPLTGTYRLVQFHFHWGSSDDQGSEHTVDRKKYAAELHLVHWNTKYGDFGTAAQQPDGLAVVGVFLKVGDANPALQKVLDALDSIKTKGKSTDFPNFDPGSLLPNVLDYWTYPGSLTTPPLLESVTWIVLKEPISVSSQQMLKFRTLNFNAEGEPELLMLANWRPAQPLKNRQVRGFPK
Protocol: The catalytic activity of carbonic anhydrase II was assessed by a colorimetric method, in which 4-nitrophenyl acetate is hydrolyzed to acetate and nitrophenolate. The nitrophenolate ionizes to generate a bright yellow anion that is readily detected by measuring its absorbance at 350-400 nm. […] Acetazolamide was added as a positive control and 100% DMSO was added as a negative control. The reaction was initiated with the addition of 20 μL of 4-nitrophenyl acetate (0.7 mM in ethanol).

[3] = Determination of drug solubility; format: physicochemical; conditions: for solubility: thermodynamic from solid
Protocol: For each test, approximately 5-10 mg was transferred to a 10 mL glass vial. Aqueous or organic solvent was added to each vial to achieve an overall concentration of 50 mg/mL. After vortexing aggressively for 2-3 minutes and sonicating in a bath sonicator for 5 minutes, undissolved drug was spun down at 1200 rpm for 5 minutes to generate a pellet. The supernatant was collected and filtered through a 0.2 μm nylon syringe filter into HPLC vials for drug content analysis. Drug concentration was determined by comparing against a standard calibration curve.

[4] = DCM, organic solvent or mixture, read-out: Solubility DCM
[5] = DMSO, organic solvent or mixture, read-out: Solubility DMSO
[6] = water / aqueous solvent, read-out: Solubility Water

## CCN[C@H]1C[C@H](C)S(=O)(=O)c2sc(S(=O)(=O)NC(=O)[C@H](C)O)cc21 [19-3, dorzolamide-PLA (n=1)]
[1]
  in vitro stability / degradation kinetics: the most stable
[2]
  IC50: 3.32 ± 2.71 nM

## CCN[C@H]1C[C@H](C)S(=O)(=O)c2sc(S(=O)(=O)NC(=O)[C@H](C)OC(=O)[C@H](C)OC(=O)[C@H](C)OC(C)=O)cc21 [26-1]
[3]; [4]
  solubility: > 50 mg/mL
[3]; [5]
  solubility: > 50 mg/mL
[3]; [6]
  solubility: > 50 mg/mL
[2]
  IC50: 16.4 ± 7.25 nM

## CCN[C@H]1C[C@H](C)S(=O)(=O)c2sc(S(=O)(=O)NC(=O)[C@H](C)OC(=O)[C@H](C)OC(=O)[C@H](C)OC(=O)[C@H](C)OC(C)=O)cc21 [27-1]
[3]; [4]
  solubility: > 50 mg/mL
[3]; [5]
  solubility: > 50 mg/mL
[3]; [6]
  solubility: < 1 mg/mL
[2]
  IC50: 44.1 ± 14.8 nM

## CCN[C@H]1C[C@H](C)S(=O)(=O)c2sc(S(=O)(=O)NC(=O)[C@H](C)OC(=O)[C@H](C)OC(=O)[C@H](C)OC(=O)[C@H](C)OC(=O)[C@H](C)OC(C)=O)cc21 [28-1, dorzolamide-acetyl PLA (n=5)]
[3]; [4]
  solubility: > 50 mg/mL
[3]; [5]
  solubility: > 50 mg/mL
[3]; [6]
  solubility: < 1 mg/mL
[2]
  IC50: 89.2 ± 18.1 nM

## CCN[C@H]1C[C@H](C)S(=O)(=O)c2sc(S(=O)(=O)NC(=O)[C@H](C)OC(=O)[C@H](C)OC(=O)[C@H](C)OC(=O)[C@H](C)OC(=O)[C@H](C)OC(=O)[C@H](C)OC(C)=O)cc21 [29-1, dorzolamide-acetyl PLA (n=6)]
[3]; [4]
  solubility: > 50 mg/mL
[3]; [5]
  solubility: > 50 mg/mL
[3]; [6]
  solubility: < 1 mg/mL

## CCN[C@H]1CN(CCCOC)S(=O)(=O)c2sc(S(=O)(=O)NC(=O)[C@H](C)O)cc21 [32-3, brinzolamide-PLA (n=1)]
[1]
  in vitro stability / degradation kinetics: slowest
[1]; 14 days
  primary compound remaining: > 98%
[2]
  IC50: 5.78 ± 3.78 nM

## CCN[C@H]1CN(CCCOC)S(=O)(=O)c2sc(S(=O)(=O)NC(=O)[C@H](C)OC(=O)[C@H](C)O)cc21 [33-2, brinzolamide-PLA (n=2)]
[3]; [4]
  solubility: > 50 mg/mL
[3]; [5]
  solubility: > 50 mg/mL
[3]; [6]
  solubility: > 50 mg/mL
[1]; 14 days
  primary compound remaining: approximately 53%
[2]
  IC50: 10.7 ± 7.27 nM

## CCN[C@H]1CN(CCCOC)S(=O)(=O)c2sc(S(=O)(=O)NC(=O)[C@H](C)OC(=O)[C@H](C)OC(=O)[C@H](C)OC(C)=O)cc21 [36-1, brinzolamide-acetyl PLA (n=3)]
[3]; [4]
  solubility: > 50 mg/mL
[3]; [5]
  solubility: > 50 mg/mL
[3]; [6]
  solubility: > 50 mg/mL
[1]; day 7
  primary compound remaining: approximately 15.4%

## CCN[C@H]1CN(CCCOC)S(=O)(=O)c2sc(S(=O)(=O)NC(=O)[C@H](C)OC(=O)[C@H](C)OC(=O)[C@H](C)OC(=O)[C@H](C)OC(C)=O)cc21 [37-1, brinzolamide-acetyl PLA (n=4)]
[3]; [4]
  solubility: > 50 mg/mL
[3]; [5]
  solubility: > 50 mg/mL
[3]; [6]
  solubility: < 1 mg/mL
[2]
  IC50: 41.5 ± 11.2 nM

## CCN[C@H]1CN(CCCOC)S(=O)(=O)c2sc(S(=O)(=O)NC(=O)[C@H](C)OC(=O)[C@H](C)OC(=O)[C@H](C)OC(=O)[C@H](C)OC(=O)[C@H](C)OC(C)=O)cc21 [38-1, brinzolamide-acetyl PLA (n=5)]
[3]; [4]
  solubility: > 50 mg/mL
[3]; [5]
  solubility: > 50 mg/mL
[3]; [6]
  solubility: < 1 mg/mL
[2]
  IC50: 102 ± 31.4 nM

## CCN[C@H]1CN(CCCOC)S(=O)(=O)c2sc(S(=O)(=O)NC(=O)[C@H](C)OC(=O)[C@H](C)OC(=O)[C@H](C)OC(=O)[C@H](C)OC(=O)[C@H](C)OC(=O)[C@H](C)OC(C)=O)cc21 [39-1, brinzolamide-acetyl PLA (n=6)]
[3]; [4]
  solubility: > 50 mg/mL
[3]; [5]
  solubility: > 50 mg/mL
[3]; [6]
  solubility: < 1 mg/mL
[2]
  IC50: 172 ± 35.6 nM

## CCN[C@H]1CN(CCCOC)S(=O)(=O)c2sc(S(=O)(=O)NC(=O)[C@H](C)OC(=O)[C@H](C)OC(=O)[C@H](C)OC(C)(C)C)cc21 [40-1, brinzolamide-t-butyl PLA (n=3)]
[1]
  in vitro stability / degradation kinetics: significantly slower than its acetylated (36-1) or uncapped counterpart (34-2)

## CCN(CC)CCNC(=O)c1c(C)[nH]c(/C=C2\C(=O)Nc3ccc(N)cc32)c1C [47-1, 5-[5-amino-2-oxo-1,2-dihydro-indol-(3Z)-ylidenemethyl]-2,4-dimethyl-1H-pyrrole-3-carboxylic acid (2-diethylamino-ethyl)-amide]
[3]; [5]
  solubility: > 50 mg/mL
[3]; [6]
  solubility: < 1 mg/mL

## C=C(CC)C(=O)c1ccc(OCC(=O)O)c(Cl)c1Cl [54-1, ethacrynic acid]
[3]; DMSO
  Solubility DMSO: >50 mg/mL
[3]; water / aqueous solvent
  Solubility Water: <1.0 mg/mL

## CCN[C@H]1C[C@H](C)S(=O)(=O)c2sc(S(=O)(=O)NC(=O)[C@H](C)OC(=O)[C@H](C)OC(=O)[C@H](C)OC(=O)CCC(=O)Oc3ccc4c(c3)/C(=C/c3[nH]c(C)c(C(=O)NCCN(CC)CC)c3C)C(=O)N4)cc21 [56-5, (3Z)-3-[(4-{[2-(Diethylamino)ethyl]carbamoyl}-3,5-dimethyl-1H-pyrrol-2-yl)methylidene]-2-oxo-2,3-dihydro-1H-indol-5-yl 1-(2S)-1-{[(2S)-1-[(1S)-1-({[(2S,4S)-4-(ethylamino)-2-methyl-1,1-dioxo-2H,3H,4H-1λ^6-thieno[2,3-b]thiopyran-6-yl]sulfonyl}carbamoyl)ethoxy]-1-oxopropan-2-yl]oxy}-1-oxopropan-2-yl butanedioate]
[3]; [5]
  solubility: > 50 mg/mL
[3]; [6]
  solubility: < 1 mg/mL
[2]
  carbonic anhydrase inhibitory activity: lowest inhibitory activity
  IC50: 184 ± 44.8 nM

## CCN(CC)CCNC(=O)c1c(C)[nH]c(/C=C2\C(=O)Nc3ccc(OC(=O)CCCCC(=O)N(CC)[C@H]4CN(CCCOC)S(=O)(=O)c5sc(S(=O)(=O)NC(=O)[C@H](C)OC(=O)[C@H](C)OC(=O)[C@H](C)O)cc54)cc32)c1C [61-2, (3Z)-3-[(4-{[2-(diethylamino)ethyl]carbamoyl}-3,5-dimethyl-1H-pyrrol-2-yl)methylidene]-2-oxo-2,3-dihydro-1H-indol-5-yl 5-{ethyl[(4R)-6-{[(2S)-2-{[(2S)-2-{[(2S)-2-hydroxypropanoyl]oxy}propanoyl]oxy}propanamido]sulfonyl}-2-(3-methoxypropyl)-1,1-dioxo-2H,3H,4H-1λ^6-thieno[3,2-e][1,2]thiazin-4-yl]carbamoyl}pentanoate]
[3]; [5]
  solubility: > 50 mg/mL
[3]; [6]
  solubility: < 1 mg/mL

## CCN[C@H]1CN(CCCOC)S(=O)(=O)c2sc(S(=O)(=O)NC(=O)[C@H](C)OC(=O)[C@H](C)OC(=O)[C@H](C)OC(=O)CCCCC(=O)Oc3ccc4c(c3)/C(=C/c3[nH]c(C)c(C(=O)NCCN(CC)CC)c3C)C(=O)N4)cc21 [61-3, (3Z)-3-[(4-{[2-(diethylamino)ethyl]carbamoyl}-3,5-dimethyl-1H-pyrrol-2-yl)methylidene]-2-oxo-2,3-dihydro-1H-indol-5-yl 1-(2S)-1-[(2S)-1-[(1S)-1-({[(4R)-4-(ethylamino)-2-(3-methoxypropyl)-1,1-dioxo-2H,3H,4H-1λ^6-thieno[3,2-e][1,2]thiazin-6-yl]sulfonyl}carbamoyl)ethoxy]-1-oxopropan-2-yl]oxy}-1-oxopropan-2-yl hexanedioate]
[3]; DMSO
  Solubility DMSO: >50 mg/mL
[3]; water / aqueous solvent
  Solubility Water: <1.0 mg/mL

## CCN[C@H]1CN(CCCOC)S(=O)(=O)c2sc(S(N)(=O)=O)cc21 [Brinzolamide, reference compound]
[3]; [4]
  solubility: < 7.5 mg/mL
[3]; DMSO
  Solubility DMSO: >50 mg/mL
[3]; [5]
  solubility: > 50 mg/mL
[3]; [6]
  solubility: < 1 mg/mL
[3]; water / aqueous solvent
  Solubility Water: <1.0 mg/mL

## CCN[C@H]1C[C@H](C)S(=O)(=O)c2sc(S(N)(=O)=O)cc21 [Dorzolamide, reference compound]
[3]; [4]
  solubility: < 1 mg/mL
[3]; [5]
  solubility: < 1 mg/mL
[3]; organic solvent
  organic solubility: low organic solubility
[3]; [6]
  solubility: > 50 mg/mL
[3]; water / aqueous solvent
  Solubility Water: >50 mg/mL
